Experimental data reported in PMC5788896 (Frontiers in Pharmacology, 2018).

Legend:
[1] = set-up: method as in Turina et al., 2006; conditions: ref Turina et al., 2006; cited from earlier work
[2] = tested on: NCM460 cell monolayers; conditions: P-gp efflux transporter substrate; ref Marchetti et al., 2016; cited from earlier work
[3] = tested on: NAD(P)H: quinone reductase (NQO1); assay: NAD(P)H:quinone reductase activity in liver after 28-day treatment; format: in vivo, C57BL/6 mice; conditions: mice liver, geraniol 120 mg/kg by gavage for 28 days
Description: At the end of treatment, mice were killed. […] NAD(P)H:quinone reductase (NQO1) activity.

[4] = tested on: Oxidized glutathione reductase (GSSG-red); assay: Oxidized glutathione reductase activity in liver after 28-day treatment; format: in vivo, C57BL/6 mice; conditions: mice liver
Description: At the end of treatment, mice were killed. […] Oxidized glutathione reductase activity (GSSG-red). […] The generation of NADP^+ from NADPH during the reduction of GSSG was recorded at 340 nm for 5 min at 37°C. GSSG-red activity was calculated using the extinction coefficient of 6.22 per mM x cm, and expressed as mol of NADPH consumed/min per mg protein ([Bonamassa et al., 2016]).

[5] = set-up: method as in Turina et al., 2006; conditions: ref Turina et al., 2006; cited from earlier work; remark: listed apart in the source
[6] = tested on: Catalase (CAT); assay: Catalase activity in liver after 28-day treatment; format: in vivo, C57BL/6 mice; conditions: mice liver
Description: At the end of treatment, mice were killed. […] Catalase (CAT) activity. The reaction was started in a quartz cuvette containing 50 mM potassium phosphate buffer and cytosol sample by adding 30 mM H2O2.

[7] = Hematochemical analysis and lipid serum profile after 28-day treatment; format: in vivo, C57BL/6 mice
Description: (§1) At the end of treatment, mice were killed.
For each animal, blood samples were collected in both heparinized and non-heparinized tubes. Plasma from heparinized samples was obtained after tabletop centrifugation at 2,000 rpm, while blood in non-heparinized tubes was centrifuged at 1,500 rpm for 10 min after complete coagulation, to obtain serum. Biochemical and hematological analyses were assessed by the Department of Veterinary Medical Science, University of Bologna.

[8] = Stability of geraniol in phosphate buffered saline; format: physicochemical; conditions: 37°C, for at least 8 h, data not shown
Description: During the experiment drug solutions were shaken continuously and gently in an oscillating water-bath.

[9] = tested on: NCM460 cell monolayers; assay: Permeation studies across NCM460 cell monolayers (Millicell inserts, HPLC); format: in vitro ADME, human; conditions: A → B higher than B → A, P < 0.001
Description: Differentiation to NCM460 cell monolayers was performed essentially according to the method reported by [Ferretti et al. (2015)]. Briefly, after two passages, confluent NCM460 cells were seeded at a density of 10^5 cells/mL in a 1:1 ratio of fresh and spent culture medium in 12-well Millicell inserts (Millipore, Milan, Italy) consisting of 1.0 μm pore size polyethylene terephthalate (PET) filter membranes, whose surface was 1.12 cm^2. Filters were presoaked for 24 h with fresh culture medium, and then the upper compartment (apical, A) received 400 μL of the diluted cells, whereas the lower compartment (basolateral, B) received 2 mL of the medium in the absence of cells. […] The integrity of the cell monolayers was monitored by measuring the transepithelial electrical resistance (TEER) by means of a voltmeter (Millicell-ERS; Millipore, Milan, Italy). The measured resistance value was multiplied by the area of the filter to obtain an absolute value of TEER, expressed as Ω⋅cm^2. […] The homogeneity and integrity of the cell monolayer were also monitored by phase contrast microscopy. […]
Permeation experiments were performed in triplicate in both the apical-to-basolateral (A → B) and basolateral-to-apical (B → A) directions. […] TEER values were monitored before and after each experiment. […]
The permeabilities were determined for the filters alone (Pf), and for the filters covered with cells (Pt). […]

[10] = tested on: UDP glucuronosyl-transferase (UDPGT); assay: UDP-glucuronosyl transferase activity in liver after 28-day treatment; format: in vivo, C57BL/6 mice; conditions: mice liver
Description: At the end of treatment, mice were killed. […] Experiments were performed in the presence or absence of Triton X-100 (0.2%) as a detergent, in order to improve the assay sensitivity ([Canistro et al., 2008]).

[11] = Intravenous infusion pharmacokinetics, whole blood by HPLC; format: in vivo, Sprague-Dawley rats
Description: The samples were extracted and analyzed as described above, with the only difference that the samples withdrawn within 20 min after infusion were diluted 1:10 using the H2O:CH3CN mixture (50:50 v/v) before analysis. Four rats ware employed for intravenous infusions of geraniol. […] The calculations were performed using the computer program GraphPad Prism. […] At the end of the oral administration and at fixed time points, blood samples (100 μL) were collected and CSF samples (50 μL) were withdrawn using the cysternal puncture method described by [van den Berg et al. (2002)], which requires a single needle stick and allows the collection of serial (40–50 μL) CSF samples that are virtually blood-free ([Dalpiaz et al., 2014]). A total volume of approximately 150 μL of CSF was collected during the experimental session. […] In particular, blood withdrawals for all programmed time points were repeated four times with a corresponding number of rats; CSF withdrawals for all programmed time points were repeated at least four times with a number of rats allowing no more than three CSF withdrawals from each of them. […] All the calculations were performed using the computer program Graph Pad Prism.

[12] = tested on: Superoxide dismutase (SOD); assay: Superoxide dismutase activity in liver after 28-day treatment; format: in vivo, C57BL/6 mice; conditions: mice liver
Description: At the end of treatment, mice were killed. […] Superoxide dismutase activity (SOD): Superoxide dismutase activity was determined according to Misra and Fridovich’s assay ([Misra and Fridovich, 1972]). Briefly, the activity was assayed spectophotometrically at […] by monitoring the generation of adenochrome, one of the main products of epinephrine autoxidation at pH 10.2. The dejection of autoxidation was used to calculate SOD activity using the extinction coefficient of 4.02 per mM × cm, and expressed as mol of epinephrine oxidized/min per mg protein, derived by subtracting each test curve from the epinephrine autoxidation standard curve ([Bonamassa et al., 2016]).

[13] = tested on: Glutathione S-transferase (GST); assay: Glutathione S-transferase activity in liver after 28-day treatment; format: in vivo, C57BL/6 mice; conditions: mice liver
Description: as §1
The incubation mixture for measuring overall GST activity contained 1 mM glutathione + 1 mM 1-chloro-2,4-dinitrobenzene (CDNB) in methanol + 0.025 mL of sample in a final volume of 2.5 mL 0.1 M phosphate Na^+/K^+ buffer (pH 6.5). The product of the reaction of the thiol group of glutathione with the electrophilic group of CDNB was read at 340 nm (ε = 9.6 mM^-1 cm^-1) ([Vivarelli et al., 2016a]).

[14] = intravenous administration of 1 mg/kg; ref Gavini et al., 2011; cited from earlier work
[15] = geraniol 120 mg/kg by gavage for 28 days
[16] = mice blood, geraniol 120 mg/kg by gavage for 28 days
[17] = mice serum, geraniol 120 mg/kg by gavage for 28 days
[18] = 120 mg/kg 28 days, versus controls

CC12CCC(CC1=O)C2(C)C (stereo not shown) [camphor]
membrane/water partition coefficient (Pm/w) [1]: 3.99

CCN(CC)C(=O)Nc1ccc(OCC(O)CNC(C)(C)C)c(C(C)=O)c1 (stereo not shown) [celiprolol]
direction of transport across NCM460 monolayers [2]: rate from basolateral to apical compartments being significantly higher than its rate in the opposite direction

CC12CCC(CC1)C(C)(C)O2 [cineole]
membrane/water partition coefficient (Pm/w) [1]: 3.37

CC(C)=CCC/C(C)=C/CO [geraniol, 3,7-dimethylocta-trans-2,6-dien-1-ol]
NAD(P)H: quinone reductase (NQO1), Mean [3]: 12.43 nmol/mg/min
oxidized glutathione reductase (GSSG-red) induction with respect to controls ([4]; 120 mg/kg 28 days, P < 0.01): up to 56%
Oxidized glutathione reductase (GSSG-red), Mean [4, 15]: 118.31 µmol/mg/min
n-octanol/water partition coefficient [5]: 2.65
catalase (CAT) induction with respect to controls ([6]; 120 mg/kg 28 days, P < 0.01): up to 29%
Catalase (CAT), Mean [6, 15]: 2.55 µmol/mg/min
ALT [7, 16]: 34 ± 5 U/l
AST [7, 16]: 149 ± 24 U/l
Cholesterol [7, 17]: 94 ± 7 mg/dL
HDL cholesterol [7, 17]: 66 ± 4 mg/dL
liver toxicity ([7]; mice, 120 mg/kg of geraniol for 4 weeks): no signs of liver toxicity
stability in PBS [8]: highly stable
permeation rate apical to basolateral versus opposite direction [9]: roughly sixfold
effect on Phase II enzymes (UDPGT) [10, 18]: not affected
UDP glucuronosyl-transferase (UDPGT), Mean [10, 15]: 3.89 nmol/mg/min
drug concentration in the rat bloodstream after intravenous infusion ([11]; iv infusion 12.5 mg (50 mg/kg), end of infusion): 298 ± 19 µg/mL
AUC ([11]; male, Sprague-Dawley, rat, iv 50 mg/kg, blood, within 3 h, read-out: AUC, intravenous administration (converted)): 126 µg·h/mL
half-life ([11]; male, Sprague-Dawley, rat, iv infusion 12.5 mg (50 mg/kg), apparent first order kinetics, read-out: half-life in the bloodstream): 12.5 ± 1.5 min
membrane/water partition coefficient (Pm/w) [1]: 4.38
effect on Superoxide dismutase (SOD) activity [12, 18]: not affected
Superoxide dismutase (SOD), Mean [12, 15]: 13.65 nmol/mg/min
effect on Phase II enzymes (GST) [13, 18]: not affected
Glutathione S-transferase (GST), Mean [13, 15]: 2.60 µmol/mg/min

CC1CCC(C(C)C)C(O)C1 (stereo not shown) [menthol]
membrane/water partition coefficient (Pm/w) [1]: 2.44

CCCC(=O)O[C@H]1[C@H](C)O[C@@H](O[C@H]2[C@H](N(C)C)[C@@H](O)[C@H](O[C@H]3[C@@H](CC=O)C[C@@H](C)[C@@H](O)/C=C/C=C/C[C@@H](C)OC(=O)C[C@@H](O)[C@@H]3OC)O[C@@H]2C)C[C@@]1(C)OC(=O)CC [rokitamycin]
concentration values in whole blood [14]: up to 7 μg/mL
